Like-named read-outs stand apart in the source and are kept apart here.
What was measured:
[1] = in vivo; cited from earlier work
[2] = test system: Candida albicans; details: against Candida albicans; cited from earlier work
[3] = test system: Gram negative and Gram-positive bacteria; details: series of Gram negative and Gram-positive bacteria; cited from earlier work
[4] = test system: Heliothis virescens; details: against Heliothis virescens; cited from earlier work
[5] = target: RXR variant I268A; I310M; F313A; L436T (Homo sapiens, UniProt P19793, F313A/I268A/I310M/L436T)
Source text: (§1) RLU=relative light units.
(§2) Mammalian Luciferase Assay: Performed with HEK 293 cells as previously described, and known in the art.
(§3) Five variants were chosen for testing in mammalian cell culture for comparison of the activation profiles (I268A;I310A;F313A;L436F,I268V;A272V;I310L;F313M, I268A;I310S;F313A;L436F, I268V;A272V;I310M;F313S;L436M, and I286A;I310M;F313A;L436T). The genes for these variants were removed from yeast expression plasmids and ligated into mammalian expression plasmids.
Target sequence in this assay (P19793 whole entry I268A/I310M/F313A/L436T): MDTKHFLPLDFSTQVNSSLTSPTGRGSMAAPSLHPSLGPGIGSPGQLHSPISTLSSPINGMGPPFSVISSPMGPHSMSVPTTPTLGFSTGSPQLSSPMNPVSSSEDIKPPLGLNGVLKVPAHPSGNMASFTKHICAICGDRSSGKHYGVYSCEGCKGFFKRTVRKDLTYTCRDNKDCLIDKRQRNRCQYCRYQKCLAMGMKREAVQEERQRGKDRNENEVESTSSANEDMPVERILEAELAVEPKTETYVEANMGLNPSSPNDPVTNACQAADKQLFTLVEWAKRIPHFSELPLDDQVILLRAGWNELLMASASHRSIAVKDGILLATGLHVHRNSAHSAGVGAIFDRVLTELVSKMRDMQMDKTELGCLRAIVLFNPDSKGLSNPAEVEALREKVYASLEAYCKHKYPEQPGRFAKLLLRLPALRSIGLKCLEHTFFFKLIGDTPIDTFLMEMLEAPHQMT

[6] = target: RXR variant I268A; I310A; F313A; L436F (Homo sapiens, UniProt P19793, F313A/I268A/I310A/L436F)
Source text: as §1, §2, §3
Target sequence in this assay (P19793 whole entry I268A/I310A/F313A/L436F): as the sequence (P19793 whole entry I268A/I310M/F313A/L436T) above, with M310A, T436F counted along it

[7] = target: RXR variant I268V; A272V; I310L; F313M (Homo sapiens, UniProt P19793, A272V/F313M/I268V/I310L)
Source text: as §1, §2, §3

[8] = target: RXR variant I268V; A272V; I310M; F313S; L436M (Homo sapiens, UniProt P19793, A272V/F313S/I268V/I310M/L436M)
Source text: as §1, §2, §3
Target sequence in this assay (P19793 whole entry I268V/A272V/I310M/F313S/L436M): as the sequence (P19793 whole entry I268A/I310M/F313A/L436T) above, with A268V, A272V, A313S, T436M counted along it

[9] = target: T1, RXR variant I268A; I310S; F313V; L436F (Homo sapiens, UniProt P19793, F313V/I268A/I310S/L436F); type: cell-based; details: Yeast, L436F (first line, r10)
T1 construct: express the Gal4 DBD fused with a variant RXR LBD (GBD:RXR); expressed in transfected cells; host or cells: Saccharomyces cerevisiae PJ69-4A
Source text: (§4) Liquid Media: The method used for quantitation was modified from a method developed by Miller and known in the art.
(§5) The twelve plasmids rescued from the selective plates were retransformed into PJ69-4A to confirm that their phenotype is plasmid linked. The strain PJ69-4A was engineered to contain a Gal4 response element controlling expression of the LacZ gene, in addition to the ADE2 gene. […] The selection assay quantifies yeast growth occurring through transcriptional activation of the ADE2 gene, while the screen quantifies β-galactosidase activity occurring though transcriptional activation of the LacZ gene.

[10] = target: T2, RXR variant I268A; I310S; F313V; L436F (Homo sapiens, UniProt P19793, F313V/I268A/I310S/L436F); assay: cell-based
T2 sequence (P19793 225-462 I268A/I310S/F313V/L436F): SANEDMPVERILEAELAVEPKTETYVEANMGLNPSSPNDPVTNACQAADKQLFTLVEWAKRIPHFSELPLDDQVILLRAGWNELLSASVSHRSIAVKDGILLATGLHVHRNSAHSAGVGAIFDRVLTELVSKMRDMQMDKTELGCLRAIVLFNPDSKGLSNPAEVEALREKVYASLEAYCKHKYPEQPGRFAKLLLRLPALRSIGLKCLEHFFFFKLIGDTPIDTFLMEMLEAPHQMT

[11] = target: T3, RXR variant I268L; A271V; I310L; F313L (Homo sapiens, UniProt P19793, A271V/F313L/I268L/I310L); assay: Mammalian luciferase assay in HEK 293 cells; type: cell-based
T3 construct: expressed in transfected cells; host or cells: HEK 293
Source text: as §1, §2

[12] = target: T4, RXR variant I268A; A272V; I310A; F313A; L436F (Homo sapiens, UniProt P19793, A272V/F313A/I268A/I310A/L436F); assay: Mammalian luciferase assay in HEK 293 cells; type: cell-based
T4 construct: expressed in transfected cells; host or cells: HEK 293
Source text: as §1, §2

[13] = target: wtRXR (Homo sapiens, UniProt P19793); assay: cell-based
Source text: as §1, §2, §3

[14] = target: RXR variant I268V; A272V; I310M; F313S; L436M (Homo sapiens, UniProt P19793, A272V/F313S/I268V/I310M/L436M); details: Yeast
Source text: as §4, §5
Target sequence in this assay (P19793 227-458 I268V/A272V/I310M/F313S/L436M limits assumed): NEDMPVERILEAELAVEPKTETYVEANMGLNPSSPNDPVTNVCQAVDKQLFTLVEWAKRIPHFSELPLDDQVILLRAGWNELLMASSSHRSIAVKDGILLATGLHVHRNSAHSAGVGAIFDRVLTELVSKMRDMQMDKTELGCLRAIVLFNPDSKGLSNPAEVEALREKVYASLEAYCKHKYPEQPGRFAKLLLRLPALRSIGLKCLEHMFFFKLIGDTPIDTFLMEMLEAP
Target sequence in this assay (Q9Y6Q9 1-1413 partner limits assumed): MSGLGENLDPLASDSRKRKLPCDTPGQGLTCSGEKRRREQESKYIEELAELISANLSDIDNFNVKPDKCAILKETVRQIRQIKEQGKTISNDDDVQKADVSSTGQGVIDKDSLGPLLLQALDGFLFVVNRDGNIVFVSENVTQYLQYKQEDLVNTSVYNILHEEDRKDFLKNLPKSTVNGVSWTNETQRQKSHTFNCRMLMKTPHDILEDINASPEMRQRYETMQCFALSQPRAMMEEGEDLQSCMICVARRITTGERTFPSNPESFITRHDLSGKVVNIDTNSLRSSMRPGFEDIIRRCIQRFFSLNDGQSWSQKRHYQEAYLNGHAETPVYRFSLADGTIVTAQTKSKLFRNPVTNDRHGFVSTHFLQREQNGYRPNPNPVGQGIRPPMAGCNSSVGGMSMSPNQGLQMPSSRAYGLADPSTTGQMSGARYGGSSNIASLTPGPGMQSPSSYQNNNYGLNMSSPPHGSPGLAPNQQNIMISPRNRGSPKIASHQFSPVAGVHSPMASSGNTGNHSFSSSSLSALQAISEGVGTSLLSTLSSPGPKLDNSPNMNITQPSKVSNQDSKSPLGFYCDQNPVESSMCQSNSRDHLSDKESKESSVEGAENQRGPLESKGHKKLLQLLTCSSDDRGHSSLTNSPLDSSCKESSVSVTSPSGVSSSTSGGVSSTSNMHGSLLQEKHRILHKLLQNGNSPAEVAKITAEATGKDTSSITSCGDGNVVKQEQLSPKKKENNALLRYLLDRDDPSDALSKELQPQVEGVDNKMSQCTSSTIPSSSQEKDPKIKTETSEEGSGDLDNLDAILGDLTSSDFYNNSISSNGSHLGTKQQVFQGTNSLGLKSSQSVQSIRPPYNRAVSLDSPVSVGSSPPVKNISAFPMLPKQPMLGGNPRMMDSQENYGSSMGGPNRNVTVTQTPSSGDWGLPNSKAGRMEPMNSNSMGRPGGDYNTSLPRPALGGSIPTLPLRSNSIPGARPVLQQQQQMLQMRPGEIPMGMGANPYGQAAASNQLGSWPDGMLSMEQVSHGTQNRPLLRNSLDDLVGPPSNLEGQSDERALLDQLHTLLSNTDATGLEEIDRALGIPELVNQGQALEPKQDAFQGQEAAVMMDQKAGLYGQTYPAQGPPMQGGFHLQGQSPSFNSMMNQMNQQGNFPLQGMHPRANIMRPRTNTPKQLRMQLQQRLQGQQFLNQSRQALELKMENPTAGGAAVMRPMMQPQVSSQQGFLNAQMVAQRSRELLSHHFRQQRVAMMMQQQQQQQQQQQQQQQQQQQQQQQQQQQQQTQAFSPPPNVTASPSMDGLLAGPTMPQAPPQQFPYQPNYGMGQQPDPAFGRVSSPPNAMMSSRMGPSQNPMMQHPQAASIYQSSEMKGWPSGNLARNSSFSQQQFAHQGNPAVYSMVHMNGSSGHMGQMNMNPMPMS

[15] = target: RXR variant I268L; A271V; I310L; F313L (Homo sapiens, UniProt P19793, A271V/F313L/I268L/I310L); details: Yeast
Source text: as §4, §5

[16] = target: RXR variant I268V; I310V; F313S (Homo sapiens, UniProt P19793, F313S/I268V/I310V); details: Yeast
Source text: as §4, §5

[17] = target: RXR variant I268A; I310M; F313A; L436T (Homo sapiens, UniProt P19793, F313A/I268A/I310M/L436T); details: Yeast
Source text: as §4, §5

[18] = target: RXR variant I268V; A271V; I310L; F313V (Homo sapiens, UniProt P19793, A271V/F313V/I268V/I310L); details: Yeast
Source text: as §4, §5

[19] = target: RXR variant I268A; A272V; I310A; F313A; L436F (Homo sapiens, UniProt P19793, A272V/F313A/I268A/I310A/L436F); details: Yeast
Source text: as §4, §5

[20] = target: T5, RXR variant I268V; A272V; I310L; F313M (Homo sapiens, UniProt P19793, A272V/F313M/I268V/I310L); remark: listed apart in the source
T5 sequence (P19793 227-462 I268V/A272V/I310L/F313M): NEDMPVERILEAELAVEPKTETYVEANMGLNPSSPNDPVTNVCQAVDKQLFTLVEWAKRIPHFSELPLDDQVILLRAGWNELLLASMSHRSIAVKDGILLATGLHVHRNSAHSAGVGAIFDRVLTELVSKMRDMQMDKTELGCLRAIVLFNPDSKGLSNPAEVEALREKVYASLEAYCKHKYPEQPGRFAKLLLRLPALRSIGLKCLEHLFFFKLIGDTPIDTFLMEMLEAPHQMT
Source text: as §4, §5

[21] = target: RXR variant I268A; I310A; F313A; L436F (Homo sapiens, UniProt P19793, F313A/I268A/I310A/L436F); details: Yeast, relative to wild type with 10 μM 9cRA
Source text: as §4, §5

[22] = target: RXR variant I268L; I310M; F313V (Homo sapiens, UniProt P19793, F313V/I268L/I310M)
Source text: as §4, §5

[23] = target: RXR variant I268L; I310V; F313I (Homo sapiens, UniProt P19793, F313I/I268L/I310V); details: Yeast
Source text: as §4, §5

[24] = target: wild-type RXR (GBD:RXR) (Homo sapiens, UniProt P19793); assay: cell-based
Source text: as §4, §5
Three plasmids were used as controls in the screen and selection assays. […] This plasmid provides a measure of background noise in both the selection and screen assays.

[25] = target: T6, RXR variant Q275C;I310M;F313I (Homo sapiens, UniProt P19793, F313I/I310M/Q275C); details: in yeast; previous best LG335 receptor Q275C;I310M;F313I; cited from earlier work
T6 construct: expressed in transfected cells; host or cells: yeast

[26] = target: T2, RXR variant I268A; I310S; F313V; L436F; assay: cell-based; parameters: species or system yeast
Source text: as §4, §5

[27] = HEK 293, relative to wild type with 10 μM 9cRA
[28] = relative to wild type with 10 μM 9cRA

Sequence of RXR variant I268L; I310M; F313V (P19793 227-458 I268L/I310M/F313V limits assumed): as the sequence (P19793 227-458 I268V/A272V/I310M/F313S/L436M limits assumed) above, with V42L, V46A, S87V, M210L counted along it
Sequence of RXR variant I268L; I310M; F313V (Q9Y6Q9 1-1413 partner limits assumed): as the sequence (Q9Y6Q9 1-1413 partner limits assumed) above
Sequence of RXR variant I268V; I310V; F313S (P19793 227-458 I268V/I310V/F313S limits assumed): as the sequence (P19793 227-458 I268V/A272V/I310M/F313S/L436M limits assumed) above, with V46A, M84V, M210L counted along it

CO/C(=C/C(=O)N(C)C(Cc1ccccc1)c1nccs1)CC(C)C(Cl)(Cl)Cl (stereo not shown) [Barbamide]
molluscicidal activity [1]: potent mollucuscidal activity

C/C1=C\[C@H](C)C[C@H](C)OC(=O)C[C@H](c2ccc(O)cc2)NC(=O)[C@@H](Cc2c(Br)[nH]c3ccccc23)N(C)C(=O)[C@H](C)NC(=O)[C@@H](C)C1 [Jaspamide]
fungicidal activity [2]: fungicidal activity
activity against bacteria [3]: completely inactive
insecticidal activity [4]: insecticidal

CCCc1cc2c(cc1C(=O)c1ccc(C(=O)O)cc1)C(C)(C)CCC2(C)C [LG335, 4-[(3-Propyl-5,5,8,8-tetramethyl-5,6,7,8-tetrahydro-2-naphtyl)carbonyl]benzoic Acid]
EC50 ([5]; HEK 293): 140 nM
Eff (efficacy) [5, 27]: 20%
EC50 ([6]; HEK 293): 30 nM
Eff (efficacy) [6, 27]: 50%
EC50 ([7]; HEK 293): 1 nM
Eff (efficacy) [7, 27]: 30%
EC50 ([8]; HEK 293): 180 nM
Eff (efficacy) [8, 27]: 30%
EC50 [9]: 470 nM
Eff (efficacy) [9, 28]: 60%
Emax ([10]; HEK293, read-out: Eff (efficacy)): 20%
EC50 ([10]; HEK 293, I268A, I310S, F313V, L436F (second line, r11)): 690 nM
EC50 [11]: 1 nM
EC50 [12]: 1 nM
EC50 [13]: 300 nM
Eff (efficacy) ([13]; HEK 293, WT, relative to wild type with 10 μM 9cRA): 10%
EC50 [14]: 680 nM
Eff (efficacy) [14, 28]: 30%
EC50 [15]: 530 nM
Eff (efficacy) [15, 28]: 20%
EC50 [16]: 440 nM
Eff (efficacy) [16, 28]: 10%
EC50 [17]: 610 nM
Eff (efficacy) [17, 28]: 10%
EC50 [18]: 650 nM
Eff (efficacy) [18, 28]: 10%
EC50 [19]: 530 nM
Eff (efficacy) [19, 28]: 30%
Eff (efficacy) ([20]; Yeast, I268V, A272V, I310L, F313M, relative to wild type with 10 μM 9cRA): 60%
EC50 ([20]; in yeast, I268V;A272V;I310L;F313M): 40 nM
improvement in EC50 over the previous best LG335 receptor, Q275C;I310M;F313I ([20]; in yeast, LG335-I268V;A272V;I310L;F313M ligand receptor pair): 25 fold
Eff (efficacy) [21]: 70%
activity in the screen assay ([22]; I268L;I310M;F313V, high basal activity): increase activity at micromolar concentrations
EC50 ([22]; Yeast, I268L, I310M, F313V): 610 nM
Eff (efficacy) ([22]; Yeast, I268L, I310M, F313V, relative to wild type with 10 μM 9cRA): 20%
EC50 [23]: >2000 nM
Eff (efficacy) [23, 28]: 10%
EC50 [24]: > 10000 nM
Eff (efficacy) ([24]; Yeast, WT, maximum increase in activation relative to wild type with 10 μM 9cRA): 10%
EC50 [25]: 1000 nM
EC50 ([26]; Yeast, I268A, I310S, F313V, L436F (second line, r11)): 430 nM
Emax ([26]; read-out: Eff (efficacy)): 50%
